Target: matrix metalloproteinase-3 (MMP-3) (Homo sapiens, UniProt P08254)
Test: MMP-3 enzyme inhibition assay
Assay type: biochemical

matrix metalloproteinase-3 (MMP-3), sequence (P08254 100-477): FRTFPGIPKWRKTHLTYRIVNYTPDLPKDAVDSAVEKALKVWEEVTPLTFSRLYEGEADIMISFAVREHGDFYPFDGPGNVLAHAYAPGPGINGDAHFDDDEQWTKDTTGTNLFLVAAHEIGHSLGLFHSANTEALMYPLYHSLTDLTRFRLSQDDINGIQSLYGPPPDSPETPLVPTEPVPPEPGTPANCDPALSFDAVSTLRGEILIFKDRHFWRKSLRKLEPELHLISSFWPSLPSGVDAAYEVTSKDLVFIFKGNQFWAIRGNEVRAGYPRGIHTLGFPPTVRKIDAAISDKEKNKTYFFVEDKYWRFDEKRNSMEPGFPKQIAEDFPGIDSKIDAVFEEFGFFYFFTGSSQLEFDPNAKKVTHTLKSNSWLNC

berkeleypenostatin E [compound 5]
IC50: 50 µM
